The results in this text go back to US12187728B2 (Raze Therapeutics, Inc., priority 2015, dated 2025).

SMILES strings stand for the structures. Some results are limits rather than exact numbers.

What is called IC50 is the concentration that gives 50% inhibition. Low readings indicate inhibition by little substance, high ones a need for much substance.

The target of this assay is T1, Human MTHFD2 (Homo sapiens, UniProt P13995).
T1 construct: residues 36-350 in Uniport ID P13995; His6 (N); made in house; host or cells: E. coli
T1 sequence (P13995 36-350): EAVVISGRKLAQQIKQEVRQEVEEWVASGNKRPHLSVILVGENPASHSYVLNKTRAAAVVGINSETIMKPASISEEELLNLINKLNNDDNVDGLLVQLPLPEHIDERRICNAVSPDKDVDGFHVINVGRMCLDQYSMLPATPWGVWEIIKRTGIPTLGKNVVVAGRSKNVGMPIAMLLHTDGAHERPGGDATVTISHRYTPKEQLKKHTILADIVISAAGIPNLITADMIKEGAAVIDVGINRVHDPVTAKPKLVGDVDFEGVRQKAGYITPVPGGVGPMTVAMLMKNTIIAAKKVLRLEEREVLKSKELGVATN
The assay is described as follows: MTHFD2 Activity Assay (dehydrogenase activity, diaphorase/resazurin coupled fluorescence). The format is biochemical. To be noted: inhibitory activity (IC50 and/or binding constant); 0.2 nM MTHFD2, 11 concentrations. The method in brief: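 Resorufin fluorescence (ex 525, em 598 nm) reports NADH formed by the dehydrogenase via diaphorase coupling. Enzyme (0.2 nM, residues 36-350, N-His6) sat with compound 15 min before 70 μM CH2-THF and 1 mM NAD+ started a 30 min reaction. IC50s come from 4-parameter fits over 11 concentrations.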
The molecule `Cn1c(Nc2ncc[nH]2)nc2c1c(=O)n(Cc1cc3c(Cl)cccc3[nH]1)c(=O)n2C` [Example 356, 1-[(4-chloro-1H-indol-2-yl)methyl]-8-(1H-imidazol-2-ylamino)-3,7-dimethyl-purine-2,6-dione] gave an IC50 of 10 to 1000 nM.

`Cn1c(Nc2ccc(CC(=O)O)cc2)nc2c1c(=O)n(Cc1cc3c(Cl)cccc3[nH]1)c(=O)n2C` [Example 345, 2-[4-[[1-[(4-chloro-1H-indol-2-yl)methyl]-3,7-dimethyl-2,6-dioxo-purin-8-yl]amino]phenyl]acetic acid] showed an IC50 of 10 to 1000 nM.

`Cn1c([C@H](N)Cc2ccncc2)nc2c1c(=O)n(Cc1cc3c(Cl)cccc3[nH]1)c(=O)n2C` [Example 447, (R)-8-(1-amino-2-(pyridin-4-yl)ethyl)-1-((4-chloro-1H-indol-2-yl)methyl)-3,7-dimethyl-1H-purine-2,6(3H,7H)-dione] displayed an IC50 of 10 to 1000 nM.

Regarding `Cn1c(N[C@H](CO)CC2CCCCC2)nc2c1c(=O)n(Cc1ccc(Cl)c(Cl)c1)c(=O)n2C` [Example 121, (S)-8-(1-cyclohexyl-3-hydroxypropan-2-ylamino)-1-(3,4-dichlorobenzyl)-3,7-dimethyl-1H-purine-2,6(3H,7H)-dione], the IC50 lay within 10 to 1000 nM.

`Cn1c(NCCC(=O)O)nc2c1c(=O)n(Cc1ccc(Cl)c(Cl)c1)c(=O)n2C` [Example 37, 3-({1-[(3,4-dichlorophenyl)methyl]-3,7-dimethyl-2,6-dioxo-2,3,6,7-tetrahydro-1H-purin-8-yl}amino)propanoic acid]: the IC50 lay within 10 to 1000 nM.

`Cn1c(=O)n(Cc2cc3c(Cl)cccc3[nH]2)c(=O)c2c1nc1n2CCNC1` [Example 476, 3-((4-chloro-1H-indol-2-yl)methyl)-1-methyl-6,7,8,9-tetrahydropyrazino[1,2-f]purine-2,4(1H,3H)-dione]: the IC50 is 10 to 1000 nM.

For the molecule `Cc1cccc2cc(Cn3c(=O)c4c(nc(C(C)N)n4C)n(C)c3=O)ccc12` (centres unmarked) [Example 448, 8-(1-aminoethyl)-3,7-dimethyl-1-((5-methylnaphthalen-2-yl)methyl)-1H-purine-2,6(3H,7H)-dione], the IC50 is 10 to 1000 nM.

`Cn1c(Nc2ccncc2)nc2c1c(=O)n(Cc1[nH]c3ccccc3c1Cl)c(=O)n2C` [Example 311, 1-((3-chloro-1H-indol-2-yl)methyl)-3,7-dimethyl-8-(pyridin-4-ylamino)-1H-purine-2,6(3H,7H)-dione] yielded a half-maximal inhibitory concentration (IC50) of 10 to 1000 nM.

Molecule `Cn1c(NC(C(=O)O)C2CCCCC2)nc2c1c(=O)n(Cc1ccc(C(F)(F)F)cc1)c(=O)n2C` (centres unmarked) [Example 151, 2-cyclohexyl-2-((3,7-dimethyl-2,6-dioxo-1-(4-(trifluoromethyl)benzyl)-2,3,6,7-tetrahydro-1H-purin-8-yl)amino)acetic acid] gave an IC50 of more than 10000 nM.

For the molecule `Cn1c(N[C@H]2C[C@H](CO)C2)nc2c1c(=O)n(Cc1ccc(Cl)c(Cl)c1)c(=O)n2C` [Example 268], the IC50 fell in the range of 10 to 1000 nM.

`Cc1ccc2c(c1)cc(Cn1c(=O)c3c(nc(N[C@H]4CC[C@@H](O)C4)n3C)n(C)c1=O)n2C` [Example 185, 1-((1,5-dimethyl-1H-indol-2-yl)methyl)-8-((1S,3R)-3-hydroxycyclopentylamino)-3,7-dimethyl-1H-purine-2,6(3H,7H)-dione] registered an IC50 of 10 to 1000 nM.

Molecule `Cn1c(N[C@H]2C[C@@H](O)C2)nc2c1c(=O)n(Cc1ccc(Cl)c(Cl)c1)c(=O)n2C` [Example 66, 1-[(3,4-dichlorophenyl)methyl]-3,7-dimethyl-8-{[(cis)-3-hydroxycyclobutyl]amino}-2,3,6,7-tetrahydro-1H-purine-2,6-dione] showed an IC50 of 10 to 1000 nM.

`COCC1CCC(Nc2nc3c(c(=O)n(Cc4ccc(Cl)c(Cl)c4)c(=O)n3C)n2C)C1` (centres unmarked) [Example 267, 1-(3,4-dichlorobenzyl)-8-(3-(methoxymethyl)cyclopentylamino)-3,7-dimethyl-1H-purine-2,6(3H,7H)-dione] yielded an IC50 of 1000 to 5000 nM.

`Cn1c(Nc2ccc(CO)cc2)nc2c1c(=O)n(Cc1ccc(Cl)c(Cl)c1)c(=O)n2C` [Example 298, 1-(3,4-dichlorobenzyl)-8-((4-(hydroxymethyl)phenyl)amino)-3,7-dimethyl-3,7-dihydro-1H-purine-2,6-dione] came in with an IC50 of 10 to 1000 nM.

`Cn1c(Nc2ccc(-c3nnn[nH]3)cc2)nc2c1c(=O)n(Cc1cc3c(Cl)cccc3[nH]1)c(=O)n2C` [Example 397, 8-((4-(1H-tetrazol-5-yl)phenyl)amino)-1-((4-chloro-1H-indol-2-yl)methyl)-3,7-dimethyl-1H-purine-2,6(3H,7H)-dione]: the IC50 was 10 to 1000 nM.

Molecule `CN(C)CCNc1nc2c(c(=O)n(Cc3ccc(Cl)c(Cl)c3)c(=O)n2C)n1C` [Example 40, 1-[(3,4-dichlorophenyl)methyl]-8-{[2-(dimethylamino)ethyl]amino}-3,7-dimethyl-2,3,6,7-tetrahydro-1H-purine-2,6-dione] gave an IC50 of 1000 to 5000 nM.

As for `Cn1c(N[C@H]2CC[C@H](O)C2)nc2c1c(=O)n(Cc1ccc(Cl)c(Cl)c1)c(=O)n2C` (single isomer, unassigned) [Example 70, 1-(3,4-dichlorobenzyl)-8-((1S,3S)-3-hydroxycyclopentylamino)-3,7-dimethyl-1H-purine-2,6(3H,7H)-dione or 1-(3,4-dichlorobenzyl)-8-((1R,3R)-3-hydroxycyclopentylamino)-3,7-dimethyl-1H-purine-2,6(3H,7H)-dione], the IC50 lay in the range of 10 to 1000 nM.

`Cn1c(Nc2ccnc([C@@H]3C[C@H]3C(=O)O)c2)nc2c1c(=O)n(Cc1ccc(Cl)c(Cl)c1)c(=O)n2C` (single isomer, unassigned) [Example 300, (1R,2R)-2-(4-((1-(3,4-dichlorobenzyl)-3,7-dimethyl-2,6-dioxo-2,3,6,7-tetrahydro-1H-purin-8-yl)amino)pyridin-2-yl)cyclopropanecarboxylic acid or (1S,2S)-2-(4-((1-(3,4-dichlorobenzyl)-3,7-dimethyl-2,6-dioxo-2,3,6,7-tetrahydro-1H-purin-8-yl)amino)pyridin-2-yl)cyclopropanecarboxylic acid] had an IC50 of 10 to 1000 nM.

`Cn1cnc2c1c(=O)n(Cc1ccc3cc[nH]c3c1)c(=O)n2C` [Example 263, 1-((1H-indol-6-yl)methyl)-3,7-dimethyl-1H-purine-2,6(3H,7H)-dione] displayed an IC50 of 5000 to 10000 nM.

Take `Cn1c(C(N)CC2CC2)nc2c1c(=O)n(Cc1cc3c(Cl)cccc3[nH]1)c(=O)n2C` (centres unmarked) [Example 442]: the IC50 was 10 to 1000 nM.

For the molecule `Cc1ccc(Nc2nc3c(c(=O)n(Cc4cc5c(Cl)cccc5[nH]4)c(=O)n3C)n2C)cn1` [Example 383, 1-((4-chloro-1H-indol-2-yl)methyl)-3,7-dimethyl-8-(6-methylpyridin-3-ylamino)-1H-purine-2,6(3H,7H)-dione], the IC50 fell in the range of 10 to 1000 nM.

Molecule `Cn1c(Nc2ccncc2)nc2c1c(=O)n(Cc1ccc3ccccc3c1)c(=O)n2C` [Example 349, 3,7-dimethyl-1-(naphthalen-2-ylmethyl)-8-(pyridin-4-ylamino)-1H-purine-2,6(3H,7H)-dione] showed an IC50 of 10 to 1000 nM.

Molecule `Cn1c(Nc2cc[nH]c(=O)n2)nc2c1c(=O)n(Cc1cc3ccccc3[nH]1)c(=O)n2C` [Example 189, 1-((1H-indol-2-yl)methyl)-3,7-dimethyl-8-(2-oxo-1,2-dihydropyrimidin-4-ylamino)-1H-purine-2,6(3H,7H)-dione] displayed an IC50 of 10 to 1000 nM.

`Cn1cnc2c1c(=O)n(Cc1cc3ccccc3n1C)c(=O)n2C` [Example 235, 3,7-dimethyl-1-((1-methyl-1H-indol-2-yl)methyl)-1H-purine-2,6(3H,7H)-dione] had an IC50 of 1000 to 5000 nM.

Regarding `Cn1c(NCCCO)nc2ncn(Cc3ccc(Cl)c(Cl)c3)c(=O)c21` [Example 167, 1-[(3,4-dichlorophenyl)methyl]-8-[(3-hydroxypropyl)amino]-7-methyl-6,7-dihydro-1H-purin-6-one], the IC50 was more than 10000 nM.

`Cc1ccc2[nH]c(Cn3c(=O)c4c(nc(Nc5ccncc5)n4C)n(C)c3=O)cc2c1` [Example 181, 3,7-dimethyl-1-((5-methyl-1H-indol-2-yl)methyl)-8-(pyridin-4-ylamino)-1H-purine-2,6(3H,7H)-dione] came in with an IC50 of 10 to 1000 nM.

Molecule `Cn1c(C(N)CO)nc2c1c(=O)n(Cc1cc3c(Cl)cccc3[nH]1)c(=O)n2C` (centres unmarked) [Example 458, 8-(1-amino-2-hydroxy-ethyl)-1-[(4-chloro-1H-indol-2-yl)methyl]-3,7-dimethyl-purine-2,6-dione] yielded an IC50 of 10 to 1000 nM.

`Cn1c(N[C@@H]2CCC[C@@H]2C(=O)O)nc2c1c(=O)n(Cc1ccc(C(F)(F)F)cc1)c(=O)n2C` [Example 110, (1S,2R)-2-(3,7-dimethyl-2,6-dioxo-1-(4-(trifluoromethyl)benzyl)-2,3,6,7-tetrahydro-1H-purin-8-ylamino)cyclopentanecarboxylic acid] had an IC50 of 1000 to 5000 nM.

Consider `CCn1c(=O)n(Cc2ccc3c(C)cccc3c2)c(=O)c2c1nc(C(C)N)n2C` (centres unmarked) [Example 459, 8-(1-aminoethyl)-3-ethyl-7-methyl-1-((5-methylnaphthalen-2-yl)methyl)-1H-purine-2,6(3H,7H)-dione], for which the IC50 is 10 to 1000 nM.
